Measurements: patent US10512637B2, “Use of inhibitor of cystine-glutamate transporter” (CHINA MEDICAL UNIVERSITY, priority 2015, dated 2019)

Assays:
[1] = test system: wild type cortical cells; assay: Annexin V apoptosis assay in primary cortical cells exposed to alcohol or cocaine; type: cell-based, C57BL/6J mouse; conditions: alcohol or cocaine incubation, 18 hours; sulfasalazine 500 μM, sorafenib 10 μM, regorafenib 10 μM; compared to vehicle (DMSO); FIG. 6
Protocol: Data are means±SD (n=3). *P<0.001 compared to vehicle group.
Primary cortical cells were prepared from cerebral cortices of wild-type C57BL/6J or xCT homozygous knockout (xCT KO) mouse embryos in embryonic day 17 as previously described in Shyu, W. C., et al., Secretoneurin promotes neuroprotection and neuronal plasticity via the Jak2/Stat3 pathway in murine models of stroke. J Clin Invest, 2008. 118(1): p. 133-48.
Annexin V staining was performed to determine cell apoptosis using the Annexin V-FITC Apoptosis Detection Kit (Sigma-Aldrich) for 10 minutes at room temperature according to the manufacturer's instructions, and then flow cytometric analysis was performed.

[2] = test system: TUNEL-positive cells in frontal cortex; assay: TUNEL staining of brain after chronic alcohol exposure; type: in vivo, C57BL/6J mice; conditions: WT mice; treatment for 14 days; sulfasalazine 15 mg/kg/day i.p., sorafenib 30 mg/kg i.p., regorafenib 30 mg/kg i.p.; compared to vehicle; FIG. 4B
Protocol: (§1) The concentration of alcohol was increased every fourteenth day. […] Intakes were recorded every day.

[3] = test system: alcohol-dependent mice; assay: Free-choice two-bottle drinking after chronic alcohol exposure; type: in vivo, C57BL/6J mice; conditions: WT mice after chronic alcohol exposure; treatment for 7 days; sulfasalazine 15 mg/kg/day i.p., sorafenib 30 mg/kg i.p., regorafenib 30 mg/kg i.p.; compared to control vehicle (DMSO); FIG. 2B
Protocol: Data are means±SD (n=6-8). *P<0.0001 compared to water. ^#P<0.0001 compared to WT mice or vehicle treatment.
as §1

[4] = test system: cocaine-dependent WT mice; assay: Free-choice two-bottle drinking after chronic cocaine exposure; type: in vivo, C57BL/6J mice; conditions: WT mice after chronic cocaine exposure (15 mg/kg i.p., 7 days); sulfasalazine 15 mg/kg/day i.p. for 6 days during free-choice drinking; compared to vehicle

SMILES: CNC(=O)c1cc(Oc2ccc(NC(=O)Nc3ccc(Cl)c(C(F)(F)F)c3)c(F)c2)ccn1 [regorafenib]
- substance-induced apoptosis in cortical cells [1]: significantly inhibited substance-induced apoptosis
- chronic alcohol exposure-induced apoptosis (TUNEL-positive cells) in brain [2]: inhibited apoptosis
- daily alcohol consumption during free-choice drinking [3]: significantly attenuated the daily alcohol consumption

SMILES: O=C(O)c1cc(/N=N/c2ccc(S(=O)(=O)Nc3ccccn3)cc2)ccc1O [sulfasalazine]
- substance-induced apoptosis in cortical cells [1]: significantly inhibited substance-induced apoptosis
- cocaine preference and craving behaviours [4]: fully inhibited cocaine preference and craving behaviours
- daily alcohol consumption during free-choice drinking [3]: significantly attenuated the daily alcohol consumption

SMILES: CNC(=O)c1cc(Oc2ccc(NC(=O)Nc3ccc(Cl)c(C(F)(F)F)c3)cc2)ccn1 [sorafenib]
- substance-induced apoptosis in cortical cells [1]: significantly inhibited substance-induced apoptosis
- chronic alcohol exposure-induced apoptosis (TUNEL-positive cells) in brain [2]: inhibited apoptosis
- daily alcohol consumption during free-choice drinking [3]: significantly attenuated the daily alcohol consumption
